Reference: US20220111019A1, “BRCA1 MODULATING COMPOUNDS, FORMULATIONS THEREOF, AND USES THEREOF” (VIRGINIA TECH INTELLECTUAL PROPERTIES, INC., priority 2018, published 2022)
“Also recorded” adds a separate entry of the source.

How the values were obtained:
[1] = tested on: mutated BRCA1; assay: Western blot quantification of BRCA1 in lysates of treated HCC1937 cells; type: cell-based, human; conditions: HCC1937 cell lysates; for decrease in BRCA1 level: single treatment (ML364 or H2O2)
Method: (§1) Cell lysate preparations. For whole cell lysate preparations, HCC1937 cells were treated by adding 1 mM H2O2 to the culture media for 10-20 minutes, while incubating cells at 37° C. and 5% CO2. Following each incubation time, cells were washed with 1× PBS (Sigma) to eliminate residual H2O2. The cells were then treated with 7 μM-9 μM ML364 (Axon Medchem) for up to 48 hours at 37° C. and 5% CO2. Control cells were cultured in media lacking H2O2 and/or ML364 during the same time period. Cells were collected and washed with ice-cold 1× PBS once followed by centrifugation at 500×g for 5 minutes. Cell pellets were lysed by resuspending the pellets in buffer solution containing 20 mM HEPES (pH 6.8), 150 mM NaCl, 2.5 mM CaCl2, 2.5 mM MgCl2, 1 mM EDTA, 2% Nonidet-P40 (NP40), 1% Nadeoxycholate, 2× protease inhibitors (Sigma), 1× phosphatase inhibitors (Sigma), and 8% glycerol. The lysis mixture was incubated on ice for 30 minutes and centrifuged at 21,000×g for 15 minutes at 4° C. The supernatants were collected and protein concentrations were quantified using the standard Pierce Bradford assay.
(§2) SDS-Page, immunoblotting, and densitometry measurements. Protein fractions were also analyzed by SDS-PAGE denaturing gels followed by staining with SimplyBlue SafeStain solution (Invitrogen) or Western blotting as previously described (10). For Western blot analysis, the following primary antibodies were used: BRCA1 (C-20; Santa Cruz Biotechnology, sc-642), ubiquitin-pAb (Enzo Life Sciences, ADI-SPA-200), p53 (DO-1; Santa Cruz Biotechnology, sc-126), K63-linkage specific polyubiquitin (D7A11; Cell Signaling, #5621) and p-actin (Sigma-Aldrich, A5441). Western blot quantification was performed using Image Labrm Software (Bio-Rad). The intensity of each band was selected using the volume tool. Local subtraction and linear regression methods were implemented to eliminate the local background values and to quantify the band intensities.

[2] = tested on: BRCA1; conditions: HCC70 cells, 1 mM H2O2, replicate experiments
Method: (§3) Authentication of cells, cell culture, and protein enrichment. Breast cancer cells (HCC70 and HCC1937 lines) used in this study were purchased from the American Type Culture Collection (ATCC) and independently characterized by ATCC as being triple negative primary ductal carcinoma cells. For all experiments, cells were promptly used within 6 months of resuscitation. Cells were cultured in RPMI-1640 (Mediatech) supplemented with 10% fetal bovine serum (ATCC) and 0.5× penicillin-streptomycin (Thermo Fisher) at 37° C. and 5% CO2 environment. BRCA1-BARD1 complexes were enriched as previously described (25). Briefly, about 1,000,000 cells were collected using Trypsin-EDTA (Thermo Fisher) followed by centrifugation (500×g, 5 minutes). For experiments involving hydrogen peroxide (H2O2), cells were collected with cell scrapers after treated with 1 mM of H2O2 (Sigma Aldrich) for 40 minutes at 37° C. and 5% CO2. Sub-cellular fractions (cytoplasmic and nuclear) were separated using the NE-PER kit (Thermo Scientific). The soluble nuclear material was incubated with Ni-NTA agarose beads (Qiagen) and incubated with rotation for 1 hour at 4° C. The beads were washed with five bed volumes of 20 mM HEPES buffer (pH 7.2, 140 mM NaCl, 2 mM CaCl2, 2 mM MgCl2 and 5 mM imidazole).

[3] = tested on: BARD1; conditions: HCC70 cells, 1 mM H2O2, replicate experiments
Method: as §3

[4] = tested on: HCC1937 cells; assay: MTS cell viability assay after H2O2 and/or ML364 treatment; type: cell-based, human; conditions: 1 mM H2O2 10 min, vs untreated cells
Method: (§4) Cell viability and proliferation assays. To determine cellular viability, we used the CellTiter 96® AQueous One Solution Cell Proliferation Assay (MTS; Promega). HCC1937 were seeded (about 4000 cells per well) in a 96-well plate at 37° C. and 5% CO2 overnight. Following a 10-minute incubation with culture media containing 1 mM H2O2, cells were washed with PBS solution and further treated with 7 μM ML364 for 24 hours at 37° C. with 5% CO2. Control cells were cultured in media lacking H2O2 and/or ML364 during the same time period. Culture media and containing MTS reagent was added to each well. The titer plate was incubated 37° C. and 5% CO2 for 1-4 hours. Absorbance values were measured at 490 nm using iMark microplate reader (Bio-Rad). MTS was also used to determine cell growth following ML364 treatment. HCC1937 cells were plated (about 1500 cells per well) in a 96-well plate at 37° C. and 5% CO2 overnight. Cells were treated with DMSO and ML364 at the different doses (2.5 μM-80 μM). After 3 days of incubation, cell viability was measured using the MTS reagent. Cellular survival was calculated by dividing the absorbance of the treated groups by those of the untreated groups (DMSO). Values for the half-maximal inhibitory concentration (IC50) were obtained using Prism software package (GraphPad).
Targeting cancer cells that express mutated BRCA1. As described elsewhere herein, mutated BRCA1 can be fine-tuned in vitro. The application of this aspect of the techology to treat cancer cells was evaluated. Enhancing the activity of tumor suppressors in healthy cells can facilitate their growth and resilience. Conversely, treating cancer cells with drugs that limit DNA repair may lessen their survival. Poly(ADP-Ribose) Polymerase (PARP) inhibitors have been used to treat BRCA1-related cancers (25-28). A limited-repair paradigm approach was developed and used treated breast cancer cells (HCC1937 line) with the DUB inhibitor, ML364 (Axon Ligands™). […] The viability of treated cells and untreated cells was quantified using MTS assay measurements.

[5] = tested on: 8-Oxo-Guanine (8-Oxo-G) accumulation in HCC1937 cells; assay: Immunofluorescence detection of 8-Oxo-Guanine DNA lesions; type: cell-based, human; conditions: for 8-Oxo-G accumulation in and around the nucleus: single treatment (ML364 in IC50 range or 1 mM H2O2 10 minutes)
Method: Fluorescence microscopy. The production of 8-Oxo-Guanine (8-Oxo-G) DNA lesions was detected by fluorescence imaging as previously described (10, 11). Briefly, HCC1937 cells (about 40,000 cells/chamber) were plated in an eight-chamber slide and incubated at 37° C. and 5% CO2 overnight. Cells were treated with complete culture media containing 1 mM H2O2 for 10-20 minutes to induce oxidative damage in the nucleus. Cells were then wash with 1× PBS and treated with ML364 (7 μM-9 μM) for up to 48 hours at 37° C. and 5% CO2. Control cells were cultured in media without H2O2 and ML364 during the same time period. Cells were washed with standard PBS solution and fixed with 4% paraformaldehyde (Electron Microscopy Sciences) for 15 minutes. The fixed cells were permiabilized by PBS solution containing 0.5% Triton X-100 (Sigma) for 10 minutes. After 1-hour blocking step with PBS supplemented with 10% normal goat serum (Jackson Immuno Research) and 0.2% Triton X-100, cells were incubated with anti-8-OxoG DNA Lesion (483.15; Santa Cruz Biotechnology) at 4° C. overnight. The 8-OxoG DNA lesions were detected with goat anti-mouse IgM-TR (Santa Cruz Biotechnology) and nuclei were stained with Hoechst 33342. An inverted fluorescence microscope (Zeiss Axio Vert.A1; Carl Zeiss Microscopy) was used to image the cells.
To determine the effect of ML364 on genomic stability, we performed immunofluorescent imaging on HCC1937 breast cancer cells to detect 8-Oxo-Guanine (8-Oxo-G) (FIG. 13C). The nuclear accumulation of 8-Oxo-G in cells indicates deficiencies in DNA damage repair (10, 11). Cells were treated with H2O2 to induce oxidative DNA damage. The ML364 drug was then administered to the cells in the IC50 range. The accumulation of 8-Oxo-G was detected using monoclonal antibodies against the substrate and fluorescently-labeled secondary antibodies. […] Under oxidative stress conditions, there was a minor degree of 8-Oxo-G detected in nuclear region following 10 minutes of treatment. […]

[6] = tested on: p53R306; assay: Western blot quantification of p53 in lysates of treated HCC1937 cells; type: cell-based, human; conditions: HCC1937 cell lysates; for decrease in p53 level: single treatment (ML364 or H2O2)
Method: as §1, §2

[7] = tested on: p53; assay: Ubiquitin ligase assay in T98G nuclear extracts; type: biochemical, human; conditions: T98G nuclear reaction mixtures, 37° C., 1 hour, vs control samples
Method: Ubiquitin ligase assay. Aliquots of DUB-treated or “restored” BRCA1-BARD1 (0.2 mg/ml) were incubated with 10 μM ML364 (USP2 inhibitor) at 37° C. for 1 hour to halt USP2 activity. Samples were then stored overnight at 4° C. The restored BRCA1-BARD1 fractions were added in varying amounts to soluble nuclear extracts prepared from T98G cells. T98G cells naturally produced low levels of BRCA1. Control samples lacked restored BRCA1-BARD1. The reaction mixtures were incubated in a water bath at 37° C. for 1 hour.
Wild-type p53-caught in the act of repair. The extent to which restored BRCA1 could enhance the ubiquitin ligase activity of cells with inherently low levels of BRCA1 (T98G line) (FIGS. 16A-16C) was evaluated. Quantities of restored BRCA1-BARD1 were added to nuclear reaction mixtures prepared from T98G cells, and changes in ubiquitination were assessed over multiple experiments (FIG. 12A). To simplify the results, modifications to the p53 monomer was first evaluated. According to Western blots, full-length p53 migrated at about 50 kDa while ubiquitnated monomers migrated close to about 68 kDa (FIGS. 12B and 16A-16C). Proteins receiving K63-linked ubiquitin adducts are often involved in autophagy and DNA repair (22), (23), (24). […] As the T98G cells naturally produced little BRCA1, we attributed the increase in ubiquitin ligase activity to the restored BRCA1-BARD1 supplement.

[8] = tested on: HCC1937 cells; assay: MTS cell growth assay after ML364 treatment (IC50); type: cell-based, human; conditions: 3 days of incubation, doses 2.5 μM-80 μM, read-out: half maximal inhibitory concentration (IC50) range
Method: as §4, with “Cells were treated with DMSO and ML364 at the different doses (2.5 μM-80 μM).” left out, “Values for the half-maximal inhibitory concentration (IC50) were obtained using Prism software package (GraphPad).” left out
Targeting cancer cells that express mutated BRCA1. […] The application of this aspect of the techology to treat cancer cells was evaluated. […] The viability of treated cells and untreated cells was quantified using MTS assay measurements.

Compound	decrease in BRCA1 level [1]	decrease in BRCA1 level [2]	decrease in BARD1 level [3]	cytotoxicity at 1000 µM ([4]; Homo sapiens, ML364 and H2O2 given separately, 7 μM ML364 24 hours, read-out: decrease in viability) [%]	8-Oxo-G accumulation in and around the nucleus [5]	decrease in p53 level [6]	increase in K63-type ubiquitin adducts on p53 (ubiquitination of p53) [7]	IC50 [8] [µM]	decline in BRCA1 level, combination of H2O2 and ML364 ([1]; H2O2 then ML364)	decline in viability, combined treatment ([4]; then 7 μM ML364 24 hours)	decrease in viability ([4]; ML364 and H2O2 given separately, 7 μM ML364 24 hours)	8-Oxo-G accumulation, combination of H2O2 and ML364 ([5]; 1 mM H2O2 then ML364 in IC50 range, up to 48 hours)	decline in p53 level, combination of H2O2 and ML364 ([6]; H2O2 then ML364)
OO [H2O2, hydrogen peroxide]	15-20%	10-20%	10-20%	~50	minor degree	15-20%	–	–	–	–	–	–	–
wild-type BRCA1-BARD1: wild type BRCA1-BARD1 heterodimer used as supplement for comparison	–	–	–	–	–	–	about 24%	–	–	–	–	–	–
Cc1ccc(S(=O)(=O)Nc2cc(C(F)(F)F)ccc2C(=O)Nc2nc(-c3ccccc3)cs2)cc1 [ML364]	about 30%	–	–	–	more abundant; also recorded: higher level	about 30%	–	7 to 10	about 50%	about 70%	about 50%	greatest 8-Oxo-G buildup; also recorded: greatest degree; also recorded: higher level	about 50%
